Reference: patent US20250169500A1, “METHOD AND APPARATUS FOR CONTROLLING WEEDS BY POST-HARVEST TREATMENT OF WEED SEEDS” (BAYER CROPSCIENCE LP, priority 2022, published 2025)

System: Palmer Amaranth
Assay: Field treatment of crop residue material with diluted indaziflam suspension concentrate at soybean harvest; Palmer Amaranth infestation in the next growing season
Format: in vivo
Details: about 1 g of indaziflam per hectare of spread crop residue material, applied at the expelling end of the seed pulverizer during harvest; assessed in the next growing season
Procedure: A crop of soybeans is grown infested with Palmer Amaranth. The soybean crop is grown to harvest and the Palmer amaranth is in the seed stage, just before seed drop. A combine harvester equipped with a follow-along seed pulverizer as described in WO 2009/100500 A is used to harvest the crop. The seed pulverizer is fitted with a liquid applicator at the expelling end to treat crop residue material expelled from the pulverizer with a diluted indaziflam suspension concentrate—before the expelled material touches the ground—such that the combine harvester-pulverizer deposits treated crop residue material such that the land so harvested is treated with about 1 g of indaziflam per hectare of spread crop residue material, without treating the land directly.
In the next growing season, another soybean crop has less than 10% of the volume of Palmer Amaranth compared to the present soybean harvest.

SMILES: Cc1ccc2c(c1)[C@H](Nc1nc(N)nc(C(C)F)n1)[C@@H](C)C2 (mixture of isomers) [indaziflam, 2-N-[(1R,2S)-2,3-dihydro-2,6-dimethyl-1H-inden-1-yl]-6-[(1RS)-1-fluoroethyl]-1,3,5-triazine-2,4-diamine]
- volume of Palmer Amaranth in next season's soybean crop compared to the present soybean harvest: less than 10%
